Data as given in article PMC6952396, “Structural basis for itraconazole-mediated NPC1 inhibition” (Nature Communications, 2020).
Several values for one entry are separate records, joined by “and”; a condition that tells them apart may be missing. Equal entries are not always repeated.

Biological target: T1, NPC1 (Cricetulus griseus, UniProt Q9JLG3)
T1 construct: CHO-7 cells in the medium are deprived of cholesterol to induce the LDL receptors biosynthesis; endogenous in cells; host or cells: CHO-7 cells
T1 sequence (Q9JLG3 23-1277): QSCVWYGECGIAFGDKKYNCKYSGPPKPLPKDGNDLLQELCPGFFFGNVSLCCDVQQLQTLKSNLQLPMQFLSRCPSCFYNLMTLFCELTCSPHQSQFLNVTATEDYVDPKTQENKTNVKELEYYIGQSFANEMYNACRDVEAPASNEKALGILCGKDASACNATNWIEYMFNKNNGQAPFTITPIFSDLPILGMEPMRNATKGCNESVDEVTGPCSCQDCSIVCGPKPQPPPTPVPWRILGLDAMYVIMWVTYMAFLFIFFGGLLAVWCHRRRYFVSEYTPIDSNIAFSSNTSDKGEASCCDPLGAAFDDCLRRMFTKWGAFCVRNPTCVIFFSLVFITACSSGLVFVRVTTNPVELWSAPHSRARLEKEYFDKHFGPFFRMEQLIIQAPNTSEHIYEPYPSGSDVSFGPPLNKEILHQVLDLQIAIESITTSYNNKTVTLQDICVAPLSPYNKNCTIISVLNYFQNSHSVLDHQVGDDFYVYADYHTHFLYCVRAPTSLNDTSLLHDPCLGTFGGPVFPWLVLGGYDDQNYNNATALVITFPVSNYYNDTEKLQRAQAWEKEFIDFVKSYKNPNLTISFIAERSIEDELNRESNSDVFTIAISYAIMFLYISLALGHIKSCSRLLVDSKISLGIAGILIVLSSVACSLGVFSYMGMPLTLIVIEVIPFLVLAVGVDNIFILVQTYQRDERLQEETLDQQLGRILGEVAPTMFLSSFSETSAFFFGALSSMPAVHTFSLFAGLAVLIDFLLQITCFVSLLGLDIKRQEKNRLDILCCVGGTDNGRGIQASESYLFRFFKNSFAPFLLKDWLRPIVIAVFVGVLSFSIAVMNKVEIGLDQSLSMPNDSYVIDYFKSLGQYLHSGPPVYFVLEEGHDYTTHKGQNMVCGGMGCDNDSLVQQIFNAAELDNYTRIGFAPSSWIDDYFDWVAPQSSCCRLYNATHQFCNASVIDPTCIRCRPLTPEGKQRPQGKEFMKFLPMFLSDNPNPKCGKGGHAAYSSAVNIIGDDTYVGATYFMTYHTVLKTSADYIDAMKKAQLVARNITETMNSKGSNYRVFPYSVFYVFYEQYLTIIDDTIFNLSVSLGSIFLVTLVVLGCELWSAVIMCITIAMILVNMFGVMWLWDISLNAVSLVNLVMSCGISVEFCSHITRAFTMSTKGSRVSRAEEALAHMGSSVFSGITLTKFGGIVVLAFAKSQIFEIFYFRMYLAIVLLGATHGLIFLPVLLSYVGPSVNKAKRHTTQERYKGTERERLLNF
Experiment: Cholesterol re-esterification (ACAT) assay measuring NPC1-mediated export of cholesterol from lysosomes in CHO-7 cells
Format: cell-based
Conditions: for cholesteryl [14C] oleate formed, Repeat 1 / cholesteryl [14C] oleate formed, Repeat 2: Fig. 2 source data; for cholesteryl [14C] oleate formed, Repeat 3 / cholesteryl [14C] oleate formed, Repeat 4: Supplementary Fig. 3 source data
How it was run: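 CHO-7 cells were sterol-deprived (5% LPDS, 50 µM compactin, 50 µM mevalonate), then given compounds with 10% FCS lipoproteins for 4 h at 37 °C and pulse-labeled 2 h with 0.1 mM [14C]oleate. Lipids were extracted, separated by TLC and cholesteryl [14C]oleate quantified by scintillation counting.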

CCC(C)n1ncn(-c2ccc(N3CCN(c4ccc(OCC5COC(Cn6cncn6)(c6ccc(Cl)cc6Cl)O5)cc4)CC3)cc2)c1=O (stereo not drawn) [Itraconazole mixture, itraconazole]
cholesteryl [14C] oleate formed, Repeat 1 (0.01 uM compound): 4.018 nanomoles formed per hour per milligram cell protein | cholesteryl [14C] oleate formed, Repeat 2 (0.01 uM compound): 4.2448 nanomoles formed per hour per milligram cell protein | cholesteryl [14C] oleate formed, Repeat 3 (0.01 uM compound): 4.59 nanomoles formed per hour per milligram cell protein | cholesteryl [14C] oleate formed, Repeat 4 (0.01 uM compound): 4.561 nanomoles formed per hour per milligram cell protein | cholesteryl [14C] oleate formed, Repeat 1 (0.03 uM compound): 5.241 nanomoles formed per hour per milligram cell protein | cholesteryl [14C] oleate formed, Repeat 2 (0.03 uM compound): 3.3234 nanomoles formed per hour per milligram cell protein | cholesteryl [14C] oleate formed, Repeat 3 (0.03 uM compound): 3.807 nanomoles formed per hour per milligram cell protein | cholesteryl [14C] oleate formed, Repeat 4 (0.03 uM compound): 5.72 nanomoles formed per hour per milligram cell protein | cholesteryl [14C] oleate formed, Repeat 1 (0.06 uM compound): 1.349 nanomoles formed per hour per milligram cell protein | cholesteryl [14C] oleate formed, Repeat 2 (0.06 uM compound): 2.23 nanomoles formed per hour per milligram cell protein | cholesteryl [14C] oleate formed, Repeat 3 (0.06 uM compound): 3.728 nanomoles formed per hour per milligram cell protein | cholesteryl [14C] oleate formed, Repeat 4 (0.06 uM compound): 1.926 nanomoles formed per hour per milligram cell protein | cholesteryl [14C] oleate formed, Repeat 1 (0.1 uM compound): 1.053 nanomoles formed per hour per milligram cell protein | cholesteryl [14C] oleate formed, Repeat 2 (0.1 uM compound): 0.9435 nanomoles formed per hour per milligram cell protein | cholesteryl [14C] oleate formed, Repeat 3 (0.1 uM compound): 1.321 nanomoles formed per hour per milligram cell protein | cholesteryl [14C] oleate formed, Repeat 4 (0.1 uM compound): 1.133 nanomoles formed per hour per milligram cell protein | cholesteryl [14C] oleate formed, Repeat 1 (0.3 uM compound): 0.3641 nanomoles formed per hour per milligram cell protein | cholesteryl [14C] oleate formed, Repeat 2 (0.3 uM compound): 0.3378 nanomoles formed per hour per milligram cell protein | cholesteryl [14C] oleate formed, Repeat 3 (0.3 uM compound): 0.05082 nanomoles formed per hour per milligram cell protein | cholesteryl [14C] oleate formed, Repeat 4 (0.3 uM compound): 0.1455 nanomoles formed per hour per milligram cell protein | IC50 (IC50 (concentration at which each compound inhibited cholesterol esterification by 50%), 10% FCS, 4 h then 2 h [14C] oleate pulse): ~50 nM and 50 nM
